Measured values taken from publication PMC10269165 (Antimicrobial Agents and Chemotherapy, 2023).

Experiments:
[1] = system: MDR isolate of H. contortus, exsheathed L3 larvae; test: Larval motility assay (LMA), Worminator; format: cell-based, Haemonchus contortus
From the text: The H. contortus isolates used were TxPh-2011-S (Texas A&M University, USA) and UGA MDR 2020 (University of Georgia Athens, USA). TxPh-2011-S (Texas A&M University, USA) was originally isolated from Pronghorn antelope in West Texas in 2011 and is fully drug susceptible, phenotypically determined by the DrenchRite larval development assay (LDA; Microbial Screening Technologies, Kemps Creek, Australia). To establish this as a laboratory isolate, it was initially passaged in goats at Texas A&M University and then at The University of Georgia using both goats and sheep, and it is currently maintained in lambs at Louisiana State University. A nemabiome assay ([69]) was conducted at the University of Calgary to confirm that the isolate is 100% H. contortus. The UGA MDR 2020 (University of Georgia Athens, USA) isolate is resistant to ivermectin, benzimidazoles, levamisole, and moxidectin, as determined by the DrenchRite LDA. To establish this as a laboratory isolate, feces collected from a sheep farm in Georgia with known history of multiple anthelmintic resistance were cultured. Two donor goats were infected with the larvae recovered, which were morphologically ([70]) identified as 89% H. contortus. A fecal egg count reduction test (FECRT) was then performed in the infected goats. First, a combination treatment with albendazole at 15 mg/kg and ivermectin at 0.4 mg/kg was performed, followed by a treatment with levamisole at 12 mg/kg. Later, and to confirm resistance to moxidectin, another treatment was administered using a dose of 0.4 mg/kg of moxidectin. Posttreatment feces were recovered, coprocultures were established, and L3 larvae were identified as 100% H. contortus. Resistance to all drugs was subsequently confirmed using a DrenchRite assay.
For LMAs, the first phase testing using compounds NSC133100 and NSC177383 was done using the Worminator system in parallel with the LDA. Initial stock solutions of 12.5 mM were prepared for each compound using 100% DMSO as a solvent. Initial stock solutions (25 μL) were then diluted in 475 μL of culture media to yield working stock solutions of 625.00, 156.30, 39.10, 9.80, 2.40, 0.60, 0.20, 0.04, and 0.00 μM in 5% DMSO for each drug. In plate, 200 μL of working stock solutions were then diluted in 800 μL of culture media, yielding concentrations of 125.00, 31.25, 7.81, 1.95, 0.49, 0.12, and 0.00 μM in 1% DMSO. For the second phase of testing, compounds showing anthelmintic activity with the LDA were tested in a second round at higher concentrations than in the first phase of testing. Initial stocks of 50 mM were prepared for compounds NSC133100, NSC177383, NSC145612, and NSC56410 using 100% DMSO as a solvent. Initial stock solutions (25-μL portions) were then diluted in 475 μL of culture media consisting of 65% Lauria-Bertani (LB) (Thermo Fisher Scientific, Branchburg, NJ), 25% NCTC (Sigma-Aldrich), 10% fetal bovine serum (Atlanta Biologicals, Flowery Branch, GA), Pen/Strep (Sigma-Aldrich) at a final concentration of […], and amphotericin B (Sigma-Aldrich) at a final concentration of […]. The working stock solutions yielded concentrations of 2,500.00, 625.00, 156.30, 39.10, 9.80, 2.40, and 0.00 μM in 5% DMSO for each compound. In each well in the plate, 200 μL of working stock solutions were then diluted in 800 μL of culture media, yielding final concentrations of 500.00, 125.00, 31.30, 7.81, 1.95, 0.49, and 0.00 μM in 1% DMSO.
For the motility assays, 24-well plates with inserts were used (Costar, catalog no. 3379; Corning, Inc., Corning, NY). Portions (640 μL) of culture media were added to each well, and approximately 50 exsheathed larvae contained in 160 μL of culture media in each insert. Once pretreatment readings were taken, 160 μL of the drug solution was added to the well, and another 40 μL was added to the insert, reaching the final concentrations described in the protocol above. All concentrations were tested in triplicate. […]

[2] = system: MDR isolate of H. contortus, exsheathed L3 larvae; test: Larval motility assay (LMA), Worminator; format: cell-based, Haemonchus contortus; remark: listed apart in the source

Which “Percent inhibition of larval motility” value ([1]; 15.625 µM, 1 hour) does the source give for `CO[C@@H]1/C=C/O[C@@]2(C)Oc3c(C)c(O)c4c(c3C2=O)C(=N[C@@H]2CC[C@@H](O)O[C@H]2C)C=C(NC(=O)/C(C)=C\C(=O)[C@@H]2C[C@@H]2[C@H](O)[C@@H](C)[C@@H](O)[C@@H](C)[C@H](OC(C)=O)[C@@H]1C)C4=O` [NSC177383] here?
Its value is -22.8%.

What about the “Percent inhibition of larval motility” value ([1]; 15.625 µM, 4 hours) of the same molecule?
The value was -24.6%.

What about the “Percent inhibition of larval motility” value ([1]; 15.625 µM, 24 hours) of the same molecule?
The value was 15.6%.

What about the “Percent inhibition of larval motility” value ([1]; 15.625 µM, 48 hours) of the same molecule?
Its value is 3.0%.

What about the “Percent inhibition of larval motility” value ([1]; 15.625 µM, 72 hours) of the same molecule?
Its value is -5.8%.

What about the “Percent inhibition of larval motility” value ([1]; 15.625 µM, 96 hours) of the same molecule?
The value was -22.4%.

And the “Percent inhibition of larval motility” value ([1]; 15.625 µM, Initial)?
Its value is 19.9%.

What about the “Percent inhibition of larval motility” value ([1]; 31.25 µM, 1 hour) of the same molecule?
Its value is 2.3%.

And the “Percent inhibition of larval motility” value ([1]; 31.25 µM, 4 hours)?
The value was 5.2%.

And the “Percent inhibition of larval motility” value ([1]; 31.25 µM, 24 hours)?
Its value is 13.8%.

And the “Percent inhibition of larval motility” value ([1]; 31.25 µM, 48 hours)?
Its value is 41.2%.

What about the “Percent inhibition of larval motility” value ([1]; 31.25 µM, 72 hours) of the same molecule?
The value was 25.5%.

What about the “Percent inhibition of larval motility” value ([1]; 31.25 µM, 96 hours) of the same molecule?
The value was 17.1%.

What about the “Percent inhibition of larval motility” value ([1]; 31.25 µM, Initial) of the same molecule?
Its value is 23.2%.

What about the “Percent inhibition of larval motility” value ([1]; 62.5 µM, 4 hours) of the same molecule?
The value was -28.6%.

And the “Percent inhibition of larval motility” value ([1]; 62.5 µM, 24 hours)?
Its value is 23.5%.

What about the “Percent inhibition of larval motility” value ([1]; 62.5 µM, 48 hours) of the same molecule?
The value was 26.0%.

What about the “Percent inhibition of larval motility” value ([1]; 125 µM, 1 hour) of the same molecule?
Its value is 26.8%.

What about the “Percent inhibition of larval motility” value ([1]; 125 µM, 4 hours) of the same molecule?
The value was -34.1%.

What about the “Percent inhibition of larval motility” value ([1]; 125 µM, 24 hours) of the same molecule?
The value was 20.5%.

What about the “Percent inhibition of larval motility” value ([1]; 125 µM, 48 hours) of the same molecule?
The value was 31.1%.

What about the “Percent inhibition of larval motility” value ([1]; 125 µM, 72 hours) of the same molecule?
The value was 4.1%.

What about the “Percent inhibition of larval motility” value ([1]; 125 µM, 96 hours) of the same molecule?
Its value is 5.7%.

What about the “Percent inhibition of larval motility” value ([1]; 125 µM, Initial) of the same molecule?
Its value is 22.5%.

What about the “Percent inhibition of larval motility” value ([1]; 250 µM, 1 hour) of the same molecule?
Its value is 28.8%.

What about the “Percent inhibition of larval motility” value ([1]; 250 µM, 24 hours) of the same molecule?
Its value is 30.2%.

And the “Percent inhibition of larval motility” value ([1]; 250 µM, 48 hours)?
The value was 44.8%.

And the “Percent inhibition of larval motility” value ([1]; 250 µM, 96 hours)?
The value was 31.2%.

And the “Percent inhibition of larval motility” value ([1]; 250 µM, Initial)?
Its value is 43.9%.

What about the “Percent inhibition of larval motility” value ([1]; 500 µM, 1 hour) of the same molecule?
Its value is 27.1%.

What about the “Percent inhibition of larval motility” value ([1]; 500 µM, 4 hours) of the same molecule?
The value was -12.9%.

And the “Percent inhibition of larval motility” value ([1]; 500 µM, 24 hours)?
Its value is 26.6%.

What about the “Percent inhibition of larval motility” value ([1]; 500 µM, 48 hours) of the same molecule?
Its value is 49.1%.

And the “Percent inhibition of larval motility” value ([1]; 500 µM, 72 hours)?
The value was 32.3%.

And the “Percent inhibition of larval motility” value ([1]; 500 µM, 96 hours)?
The value was 21.4%.

What about the “Percent inhibition of larval motility” value ([1]; 500 µM, Initial) of the same molecule?
Its value is 36.4%.

And the “Percent inhibition of larval motility” value ([2]; 62.5 µM, 1 hour)?
The value was 3.9%.

And the “Percent inhibition of larval motility” value ([2]; 62.5 µM, 72 hours)?
Its value is 19.1%.

And the “Percent inhibition of larval motility” value ([2]; 62.5 µM, 96 hours)?
The value was 14.7%.

And the “Percent inhibition of larval motility” value ([2]; 62.5 µM, Initial)?
Its value is 16.5%.

What about the “Percent inhibition of larval motility” value ([2]; 250 µM, 4 hours) of the same molecule?
Its value is -42.2%.

What about the “Percent inhibition of larval motility” value ([2]; 250 µM, 72 hours) of the same molecule?
The value was 46.1%.
